The source of these data is ChEMBL document CHEMBL3861948 (Medchemcomm, 2016).

pIC50: −log10 of the molar value.

This assay has as its target Mitogen-activated protein kinase 14 (Homo sapiens, UniProt Q16539). The assay can be described thus: Inhibition of p38alpha in human THP1 cells assessed as suppression of LPS-induced TNFalpha secretion preincubated for 30 mins followed by LPS challenge measured after 2 hrs. Format: cell-based, THP-1.

Chain of Mitogen-activated protein kinase 14 (Q16539 whole entry): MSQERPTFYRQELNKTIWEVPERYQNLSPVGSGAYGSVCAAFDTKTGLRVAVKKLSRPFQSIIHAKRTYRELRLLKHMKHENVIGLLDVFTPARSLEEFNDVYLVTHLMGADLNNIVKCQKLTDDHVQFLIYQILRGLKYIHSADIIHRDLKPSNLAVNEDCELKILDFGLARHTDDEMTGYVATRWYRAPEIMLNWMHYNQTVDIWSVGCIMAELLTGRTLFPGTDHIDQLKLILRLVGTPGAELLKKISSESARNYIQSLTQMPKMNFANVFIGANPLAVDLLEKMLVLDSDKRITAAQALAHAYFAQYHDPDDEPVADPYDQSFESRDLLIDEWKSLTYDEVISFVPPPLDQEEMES

As to `CNC(=O)[C@H](Cc1cccc(C(F)(F)F)c1)NC(=O)c1ccc(CNC(=O)c2cnn(-c3ccccc3)c2N)cc1`, the pIC50 was 7.34.
Then `NC(=O)[C@H](CCC1CCCCC1)NC(=O)[C@H]1CC[C@H](CNC(=O)c2cnn(-c3ccccc3)c2N)CC1`, with 7.36.

One may read the pIC50 as the negative decadic logarithm of the IC50, by convention in mol/L.
